The text below walks through data of patent publication US20190380978A1, “SOLID ORAL DOSAGE FORMS OF 2R,6R-HYDROXYNORKETAMINE OR DERIVATIVES THEREOF” (priority 2016, published 2019).

Counter-ions that a name gives are not always drawn. Bounds are passed on as bounds.

Series [1] has as its system plasma binding proteins. The note with it: background statement on SSRIs; cited from earlier work.
The target of series [2] is T1, UGT1A1 (Homo sapiens, UniProt P22309).
T1 sequence (P22309 26-533): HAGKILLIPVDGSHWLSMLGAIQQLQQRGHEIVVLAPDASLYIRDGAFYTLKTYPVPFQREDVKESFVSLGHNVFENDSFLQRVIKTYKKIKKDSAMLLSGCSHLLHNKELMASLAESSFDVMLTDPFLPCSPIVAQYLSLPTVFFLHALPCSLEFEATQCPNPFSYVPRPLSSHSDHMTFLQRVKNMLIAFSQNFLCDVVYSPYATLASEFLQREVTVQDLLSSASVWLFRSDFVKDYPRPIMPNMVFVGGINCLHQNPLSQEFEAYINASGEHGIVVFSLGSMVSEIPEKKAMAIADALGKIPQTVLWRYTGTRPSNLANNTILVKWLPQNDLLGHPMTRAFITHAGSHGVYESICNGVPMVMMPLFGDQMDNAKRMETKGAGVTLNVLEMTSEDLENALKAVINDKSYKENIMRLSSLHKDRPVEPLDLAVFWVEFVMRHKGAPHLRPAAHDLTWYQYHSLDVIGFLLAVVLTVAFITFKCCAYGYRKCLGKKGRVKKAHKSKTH
The experiment in a line: UGT inhibition assay, UGT1A1. It is filed as in vitro ADME. The source says:
2R,6R-hydroxynorketamine was therefore investigated for its potential to inhibit this isozyme, along with that of the major UGT isozyme, UGT1A1, using a UGT inhibition assay.

Series [3] deals with UGT2B7 (Homo sapiens, UniProt P16662). The experiment in a line: UGT inhibition assay, UGT2B7. It is filed as in vitro ADME.
Series [4] is described as follows: in vitro. The note with it: human.

Broadly, the IC50 is the concentration at which inhibition is half-maximal. For orientation: Papp A→B means the apparent permeability from the apical to the basolateral side of a cell layer. Read a high Papp A→B as fast passage. The term Papp B→A denotes how fast a substance crosses the layer from the basolateral side.

Chain of UGT2B7 (P16662 24-529): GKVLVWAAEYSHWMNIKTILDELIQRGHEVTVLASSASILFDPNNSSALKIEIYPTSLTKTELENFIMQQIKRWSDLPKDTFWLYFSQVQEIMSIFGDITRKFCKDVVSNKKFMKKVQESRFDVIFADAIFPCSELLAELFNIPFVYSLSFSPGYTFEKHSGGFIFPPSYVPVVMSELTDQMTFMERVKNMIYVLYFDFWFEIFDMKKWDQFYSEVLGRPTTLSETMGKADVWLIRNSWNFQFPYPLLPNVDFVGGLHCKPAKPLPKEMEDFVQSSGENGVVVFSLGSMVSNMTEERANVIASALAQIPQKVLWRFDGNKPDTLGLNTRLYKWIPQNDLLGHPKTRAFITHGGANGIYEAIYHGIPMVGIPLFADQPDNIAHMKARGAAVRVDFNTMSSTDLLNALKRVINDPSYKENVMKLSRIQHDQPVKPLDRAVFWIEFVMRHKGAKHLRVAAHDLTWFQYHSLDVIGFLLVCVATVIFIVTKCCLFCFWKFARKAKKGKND

As for `Fc1ccc([C@@H]2CCNC[C@H]2COc2ccc3c(c2)OCO3)cc1` [paroxetine], in series [1], the protein bound is given as 95%.
Consider `CNCCC(Oc1ccc(C(F)(F)F)cc1)c1ccccc1` (centres unmarked) [fluoxetine], for which the protein bound in series [1] is listed as 94%.
The compound `COC(=O)N[C@H](C(=O)N[C@@H](Cc1ccccc1)[C@@H](O)CN(Cc1ccc(-c2ccccn2)cc1)NC(=O)[C@@H](NC(=O)OC)C(C)(C)C)C(C)(C)C` [Atazanavir] came in with a 50% inhibitory concentration (IC50) in series [2] of 0.153 µM.
For the compound `N[C@@]1(c2ccccc2Cl)CCC[C@@H](O)C1=O` [2R-6R-Hydroxynorketamine Hydrochloride, 2R,6R-hydroxynorketamine hydrochloride], the IC50 in series [2] and in series [3] was above 100 µM throughout.
For `CC(C)NCC(O)COc1cccc2ccccc12` (centres unmarked) [propranolol, reference compound], the recovery was determined as 71.1% in series [4] (Caco-2, Direction = A2B Mean % Recovery, Caco-2, A2B) and 82.8% in series [4] (Caco-2, Direction = B2A Mean % Recovery, Caco-2, B2A). Moreover, the Papp A→B in series [4] (Caco-2, Direction = A2B Mean Papp, Caco-2, A2B, mean, n 2) was 26.7 ×10⁻⁶ cm/s; in series [4] (Caco-2, Direction = A2B Papp Replicate 1, Caco-2, A2B, replicate 1), 26 ×10⁻⁶ cm/s; in series [4] (Caco-2, Direction = A2B Papp Replicate 2, Caco-2, A2B, replicate 2), 27.4 ×10⁻⁶ cm/s. In series [4] (Caco-2, Direction = B2A Papp Replicate 2, Caco-2, B2A, replicate 2), this compound yielded a Papp B→A of 26.2 ×10⁻⁶ cm/s.
